# In publication PMC9967700, “Metabolism-Guided Optimization of Tryptophanol-Derived Isoindolinone p53 Activators” (Pharmaceuticals, 2023):
# Like-named read-outs stand apart in the source and are kept apart here.
# How the values were obtained:
# [1] = Human liver microsomes incubations: half-life and intrinsic clearance; type: in vitro ADME; details: for Intrinsic Clearance / clearance classification: HLM; for Intrinsic Clearance: calculated from half-life (Equation 2); for clearance classification: classification after ref 32; for half-life at 10 μM: human, liver microsomes, pH 7.4, HLM 1 mg protein/mL, NADPH, 37 °C
# Experimental: (§1) For the generation of Phase I metabolites: tested compounds, at a 10 μM concentration (1 μL of 5 mM DMSO stock solution), were incubated with HLM (1 mg protein/mL), Vivid® regenerating system (5 μL) and NADPH (1mM) in ABIC 50 mM buffer pH 7.4, for a total incubation volume of 500 μL. Incubations were run in duplicate, at 37 °C. Aliquots were collected at 0, 5, 10, 20, 30, 40, 50, 60, 75, 90, 120, 180 min and reactions were stopped by adding and ice-cold solution of reserpine (2.5 μM) in acetonitrile. Additional aliquots were taken at 0 and 120 min and subsequently treated with L-lysine (100 µM) and sodium cyanoborohydride (10 µM) or glutathione (100 µM). Following centrifugation (10,000 rpm, 15 min, RT), the clear supernatants were collected and analyzed LC-ESI-HRMS/MS. Control incubations were conducted in the same conditions: (1) using DMSO as negative control, in absence of the test drug; (2) using heat-denatured HLM (90 °C, 15 min); (3) using nevirapine, as a positive control, instead of the tested compound; and (4) in absence of NADPH co-factor.
# The in vitro depletion half-lives of tested compounds t1/2 were calculated using Equation (1), assuming that testing compounds follow a first-order kinetic trend. The “slope” was determined from linear fitting of the natural logarithm of the concentration of drug remaining plotted against time:(1) t1/2=ln2/slope
# The intrinsic clearance in HLM (CLint, HLM) was calculated using Equation (2):(2) CLint HLM =ln2/ t1/2 x mL incubation/mg microsomes x 45 mg microsomes/g liver x 26 g liver/Kg b.w.
# [2] = Human plasma incubations (stability); type: in vitro ADME; details: 37 °C, 40 μM
# Experimental: Human plasma incubations were performed in duplicate, at 37 °C, by standard methodology. Specifically, incubations contained 40 μM of the test compound for a final volume of 1 mL. The mixtures were incubated for a total time of 24 h, and aliquots following 0, 30, 60, 120, 180 min and 24 h and quenched with a cold solution of reserpine 0.1 mM in acetonitrile. Following centrifugation (10,000 rpm, 10 min, RT), the clear supernatants were collected and analyzed by LC-ESI(+)-MS/MS. Additional control assays were conducted using PBS pH 7.4 instead of plasma solution and using procaine as a positive control.
# [3] = Glucuronidation in alamethicin induced-HLM with NADPH and UDPGA; type: in vitro ADME, human; details: NADPH, UDPGA, LC-ESI(-)-HRMS/MS
# Experimental: For the generation of glucuronidation metabolites: HLM were preincubated for 15 min with alamethicin (25 µg/mL). Incubations were then run in duplicate at 37 °C, using the following conditions: test compounds at a concentration of 25 µM (1 μL of DMSO stock solution 5 mM), HLM (1 mg/mL, 10 μL), NADPH (5 mM), MgCl2 (2 mM), UDPGA (5 mM) for a final volume of 200 μL, in 50 mM ABIC buffer pH 7.4. Control incubations were conducted in the same conditions using: (1) DMSO as negative control, in absence of the test compound; (2) heat-denatured HLM (90 °C, 15 min); and (3) in absence of UDPGA co-factor. Aliquots (50 μL) were collected at 0 and 2 h and then quenched with 50 μL of a cold 2.5 μM reserpine solution in acetonitrile. All the samples were vortexed and centrifuged for 15 min at 10,000 rpm. The supernatants were collected and stored at −20 °C until further analysis by LC-ESI-HRMS/MS.
# [4] = parameters: method as in PMID 26735173; details: cited from earlier work
# HCT116 p53+/+ cells [5] = test system: HCT116 p53+/+ cells; parameters: method as in PMID 26735173; details: 48 h treatment; cited from earlier work
# [6] = Bioactivation: S9 rat liver fraction and HLM incubations in the presence of glutathione; type: in vitro ADME, human; details: S9 rat liver fraction and HLM in the presence of GSH
# Experimental: as §1, with “Control incubations were conducted in the same conditions: (1) using DMSO as negative control, in absence of the test drug; (2) using heat-denatured HLM (90 °C, 15 min); (3) using nevirapine, as a positive control, instead of the tested compound; and (4) in absence of NADPH co-factor.” left out
# Tested compounds at a 10 μM concentration (1 μL of 5 mM DMSO stock solution) were incubated with rat liver S9 fraction (2 mg protein/mL), Vivid® regenerating system (2 μL) and NADPH (1mM) in ABIC 50 mM buffer pH 7.4, for a total incubation volume of 500 μL. […] Following centrifugation (10,000 rpm, 15 min, RT) the clear supernatants were collected and analyzed LC-ESI-HRMS/MS. […]
# HCT116 p53−/− cells [7] = test system: HCT116 p53−/− cells; parameters: method as in PMID 26735173; details: 48 h treatment; cited from earlier work
# HCT116 p53−/− cells [8] = assay: Antiproliferative activity, sulforhodamine B (SRB) assay; type: cell-based, human; details: Homo sapiens, HCT-116, 48 h, 48 h treatment; mean ± SEM of 3–5 independent experiments; read-out: HCT116 p53−/− GI50
# Experimental: (§2) Tumor cells were cultured in RPMI-1640 with UltraGlutamine (Lonza, VWR), supplemented with 10% fetal bovine serum (FBS; Gibco, Alfagene) and maintained in a humidified incubator at 37 °C with 5% CO2. Cell lines were seeded in 96-well plates at the cells/well density of 5.0 × 10^3.
# HCT116 p53+/+ cells [9] = assay: as above; type: cell-based, human
# Experimental: as §2
Intrinsic Clearance [1],clearance classification [1],half-life at 10 μM [1],stability towards plasmatic enzymes [2],GSH adducts identified [6],Intrinsic Clearance ([1]; listed as SLMP53-2 (7)),GI50 (HCT116 p53−/− cells [8]),"GI50 (HCT116 p53+/+ cells [9]; Homo sapiens, HCT-116, 48 h treatment, mean ± SEM of 3–5 independent experiments, read-out: HCT116 p53+/+ GI50)",SMILES,Phase II (glucuronic acid conjugate) metabolites identified [3],toxicity alerts in vivo [4],GI50 (HCT116 p53+/+ cells [5]),GI50 (HCT116 p53−/− cells [7]),S.I. (selectivity index) (HCT116 p53+/+ cells [9]; HCT116 p53−/− versus HCT116 p53+/+)
3.67 mL/min/kg,low clearance,2.3 h,stable towards plasmatic enzymes for 3 h,Two GSH adducts were identified,–,–,–,CC12OCC(Cc3c[nH]c4ccccc34)N1C(=O)c1ccccc12 (centres unmarked) [SLMP53-1],two glucuronic acid conjugates were identified,not associated with toxicity alerts,15.6 ± 1.6 µM,34 ± 3.5 µM,–
–,low clearance,2.45 h,stable towards plasmatic enzymes for 3 h,–,2.75 mL/min/kg,17.7 ± 2.3 µM,8.4 ± 1.1 µM,Cn1cc(C[C@H]2CO[C@]3(c4ccccc4)c4ccccc4C(=O)N23)c2ccccc21 [SLMP53-2],no Phase II metabolites were identified,–,–,–,2.1
